# Experimental data as given in US20230110128A1, “USE OF ANTIBODY DRUG CONJUGATES COMPRISING TUBULIN DISRUPTING AGENTS TO TREAT SOLID TUMOR” (Seagen Inc., priority 2018, published 2023).
# Entries after “also recorded” stand apart in the source; their conditions may differ. Non-standard residues stand in square brackets, D forms with d. Residues, ends and D or L forms follow the SMILES beside them. *: point of attachment. Dolaproine = CO[C@@H]([C@@H]1CCCN1)[C@@H](C)C(=O)O; Dil = CC[C@H](C)[C@H](NC)[C@@H](CC(=O)O)OC; X1 = C[C@@H](N*)[C@@H](O)c1ccccc1; NMeV = CN[C@H](C(=O)O)C(C)C
# Key:
# MDA-MB-468 cells = assay: ATP secretion from MDA-MB-468 cells; type: cell-based; details: supernatant after 48 hours
# Protocol: MDA-MB-468 cells were treated with MMAE or an MMAE-containing ADC (ASG-22ME). Supernatant was collected after 48 hours of treatment, and analyzed for ATP secretion.
# [1] = system: T-24 tumor cells co-cultured with macrophages; assay: Cytokine and chemokine production in macrophage co-culture with treated T-24 cells; type: cell-based; details: T-24 co-culture supernatant after 24 hours, ELISA, normalized to untreated
# Protocol: (§1) T-24 (bladder) cells were treated with MMAE or an MMAE-containing ADC (ASG-22ME) for 48 hours and analyzed for ATP secretion. […] T-24 cells were also treated with MMAE, an MMAE-containing ADC (ASG22ME, Enfortumab vedotin), vincristine, and Paclitaxel for 24 hours. Cells were washed and harvested, and subsequently co-cultured with the enriched macrophages as above. Macrophages were harvested 4 days after co-culture and assayed for immune activation by flow cytometry. Level of antigen-presentation (as measured by frequency of MHCII-expressing macrophages) was quantified and normalized to macrophages that were co-cultured with untreated tumor cells. […] Supernatant from the co-culture of macrophages and dying T-24 tumor cells was harvested after 24 hours and assayed for levels of cytokine and chemokine production by ELISA and normalized to macrophages that were co-cultured with untreated tumor cells.
# [2] = system: PC-3 prostate tumor cells; assay: ATP secretion from PC-3 cells; type: cell-based
# Protocol: (§2) PC-3 prostate tumor cells were also treated with MMAE, Vincristine, or Paclitaxel. Supernatant was collected after 16 hours of treatment, and analyzed for ATP secretion. […] PC-3 cells were treated for 24 hours with an MMAE-containing ADC (SGN-LIV1A) or MMAE and harvested in RIPA buffer for western blot analysis (FIG. 3C).
# [3] = system: Calu-1 cells co-cultured with macrophages; assay: Cytokine and chemokine production in macrophage co-culture with treated Calu-1 cells; type: cell-based; details: Calu-1 co-culture supernatant 24 hours, ELISA, normalized to untreated
# Protocol: Supernatant from the co-culture of macrophages and dying tumor cells was harvested 24 hours later and assayed for levels of cytokine and chemokine production by ELISA and normalized to macrophages that were co-cultured with untreated tumor cells as described above.
# U-266 cells = assay: Cell surface ICD markers (HSP70, calreticulin) on AnnexinV negative U-266 cells; type: cell-based; details: 48 hours, MMAE 492 nM, SGN-CD48A 10 ng/ml
# Protocol: U-266 cells were treated for 48 hours with free MMAE (492 nM), an MMAE-containing ADC (SGN-CD48A, 10 ng/ml), and a non-binding MMAE-ADC (10 ng/ml) for 48 hours. Cells were harvested, washed in flow buffer, and subsequently stained for both AnnexinV, a marker for apoptosis, and HSP70. Cells were also stained with both AnnexinV and calreticulin. In both conditions, cells that were AnnexinV negative were selected and the percent population that was positive for HSP70 or calreticulin were determined.
# [4] = system: MiaPaca-CHOP-luciferase cells; assay: CHOP-driven luciferase reporter assay of severe ER stress; type: cell-based; details: after 16 hours
# Protocol: Severe ER stress leads to upregulation of CHOP, and initiates mitochondrial apoptosis. MiaPaca2 pancreatic tumor cells were engineered to express a CHOP-driven luciferase reporter system (purchased from Signosis, Inc.) that allows for quantifiable monitoring of severe ER stress. MiaPaca-CHOP-luciferase cells were treated with MMAE, vincristine, and Paclitaxel, and assayed for luciferase expression after 16 hours.
# [5] = system: A2058, SK-MEL-5, and SK-MEL-28 (skin) cells co-cultured with macrophages; assay: Macrophage antigen presentation after co-culture with treated skin tumor cells; type: cell-based; details: tumor cells treated 24 hours; macrophages harvested 4 days after co-culture; normalized to untreated
# Protocol: Macrophages were enriched from PBMCs from 2 healthy donors by adhering PBMCs to cell culture-grade plastic. Non-adherent cells were removed 24 hours later, leaving a population of cells enriched for macrophages.
# A2058, SK-MEL-5, and SK-MEL-28 (skin) cells were treated with MMAE, vincristine, and Paclitaxel for 24 hours. Cells were washed and harvested, and subsequently co-cultured with the enriched macrophages prepared above. Macrophages were harvested 4 days after co-culture and assayed for immune activation by flow cytometry. The level of antigen-presentation (as measured by frequency of MHCII-expressing cells) was quantified and normalized to macrophages that were co-cultured with untreated tumor cells.
# PC-3 cells [6] = assay: HMGB1 release from PC-3 cells; type: cell-based; details: FIG. 3E
# PC-3 cells [7] = assay: Western blot analysis of ER stress in PC-3 cells; type: cell-based; details: 24 hours
# Protocol: as §2
# BxPC-3 cells = assay: ATP secretion from BxPC-3 cells; type: cell-based; details: 17 hours
# [8] = system: MiaPaca-CHOP-luciferase cells subcutaneously engrafted; assay: Tumoral CHOP luciferase signal in engrafted MiaPaca-CHOP-luciferase tumors; type: in vivo, NOD/SCID/gamma-chain deficient mice; details: intratumorally; MMAE 0.36 mg/kg, vincristine 1.0 mg/kg, Paclitaxel 10 mg/kg
# Protocol: MiaPaca-CHOP-luciferase cells were subcutaneously engrafted into NOD/SCID/gamma-chain deficient mice. Subcutaneous tumors were treated intratumorally with MMAE (0.36 mg/kg), vincristine (1.0 mg/kg), and Paclitaxel (10 mg/kg) and tumoral luciferase signal was monitored over time.
# [9] = system: BxPC3 and HPAFII tumor cells co-cultured with macrophages; assay: Cytokine and chemokine production in macrophage co-culture with treated BxPC3 and HPAFII cells; type: cell-based; details: BxPC3 and HPAFII co-culture supernatant 24 hours, ELISA, normalized to untreated
# Protocol: Supernatant from the co-culture of macrophages and dying tumor cells was harvested 24 hours later and assayed for levels of cytokine and chemokine production by ELISA and normalized to macrophages that were co-cultured with untreated tumor cells.
# [10] = system: MCF7 cells co-cultured with macrophages; assay: Cytokine and chemokine production in macrophage co-culture with treated MCF7 cells; type: cell-based; details: MCF7 co-culture supernatant 24 hours, ELISA, normalized to untreated
# Protocol: MCF7 […] cells were treated with MMAE, an MMAE-containing ADC (anti-CD71 OKT9-1006), vincristine, and Paclitaxel for 24 hours. Cells were washed and harvested, and subsequently co-cultured with the enriched macrophages prepared above. Macrophages were harvested 4 days after co-culture and assayed for immune activation by flow cytometry. […] Supernatant from the co-culture of macrophages and dying MCF7 cells was harvested 24 hours later and assayed for levels of cytokine and chemokine production by ELISA and normalized to macrophages that were co-cultured with untreated tumor cells.
# MiaPaca2 cells = assay: ATP secretion from MiaPaca2 cells; type: cell-based; details: supernatant after 16 hours
# Protocol: MiaPaca2 cells were treated with MMAE, Vincristine, or Paclitaxel. Supernatant was collected after 16 hours of treatment, and analyzed for ATP secretion.
# T-24 (bladder) cells = assay: ATP secretion from T-24 cells; type: cell-based; details: 48 hours
# Protocol: as §1
smiles,measurement,setting,value
"CC[C@H](C)[C@@H]([C@@H](CC(=O)N1CCC[C@H]1[C@H](OC)[C@@H](C)C(=O)N[C@H](C)[C@@H](O)c1ccccc1)OC)N(C)C(=O)[C@@H](NC(=O)[C@@H](NC)C(C)C)C(C)C [MMAE, monomethyl auristatin E] (H-[NMeV]V[Dil][Dolaproine]-X1)",ATP secretion,MDA-MB-468 cells,robust ATP secretion that was comparable to thapsigargin
same,Cytokine and chemokine production,[1],increase of the indicated cytokines and chemokines that was more robust than treatment with Paclitaxel
same,Release of ATP,[2]; FIG. 3D,release of ATP
same,ATP secretion,[2]; supernatant after 16 hours,robust ATP secretion
same,Cytokine and chemokine production,[3],increase of the indicated cytokines and chemokines that was more robust than treatment with Paclitaxel
same,"Percentage of ICD markers (HSP70, calreticulin) on the cell surface of AnnexinV negative cells",U-266 cells,increase in the percentage of ICD markers
same,Luciferase signal as a proxy of severe ER stress induction,[4],dose-dependent increase in luciferase signal
same,Antigen-presentation (frequency of MHCII-expressing cells),[5],increase in antigen-presentation in 2/3 tumor cell lines that was more robust than Paclitaxel
same,Release of HMGB1,PC-3 cells [6],release of ATP and HMGB1
same,ER stress (phosphorylation of IRE1 and JNK),PC-3 cells [7],elicits ER stress (phosphorylation of IRE1 and JNK); also recorded: elicits ER stress (phosphorylation of IRE1 and INK)
same,ATP secretion,BxPC-3 cells,equivalent levels of ATP secretion
same,Severe ER stress in engrafted tumors (tumoral luciferase signal over time),[8],rapidly elicited severe ER stress
same,Cytokine and chemokine production,[9],increase of the indicated cytokines and chemokines that was more robust than treatment with Paclitaxel
same,Cytokine and chemokine production,[10],increase of the indicated cytokines and chemokines that was more robust than treatment with Paclitaxel
same,ATP secretion,MiaPaca2 cells,robust ATP secretion
same,ATP secretion,T-24 (bladder) cells,potent ATP secretion
